Results from US6997270B2, “Compounds and method for generating a highly efficient membrane in water-based drilling fluids” (Halliburton Energy Services, Inc., priority 2000, dated 2006).

How the values were obtained:
[1] = Membrane efficiency test in autonomous triaxial test equipment (temperatures above 25° Celsius and/or 35 MPa)
Experimental: Based on the aforementioned fundamental understanding of the membrane generation mechanisms for acid-base species, we have discovered a range of novel compounds for use in water-based drilling fluids that have the capacity to generate a highly efficient membrane on the borehole wall in argillaceous formations. […] Two types of test equipment are used for the present invention: (i) membrane efficiency screening equipment for tests conducted at 25° Celsius and the test solution at 15 MPa, and (ii) autonomous triaxial test equipment for tests conducted at temperatures above 25° Celsius and/or the test solution at 35 MPa.
Referring to FIG. 5, the parts of the cell are shown as follows: Top Plate-20; Bottom Platen-21; Load Cell-22; Top Cap-23; Downstream Pore Pressure Port-24; Removable Cell Body-25; Radial Gauges-26; LVDT-27; Upstream Pore Pressure Port-28; Clamping Ring-29; Upstream Flush Pressure Port-30; O-Ring-31; Membrane-32; Temperature Sensor-33; and Sample 34.
The cell of FIG. 5 has a confining pressure and pore pressure capacity of 70 MPa.
The instruments used to measure the behaviour of the test sample 34 are as follows: • (a) two diametrically-opposed LVDTs (Linear Variable Differential Transformers) 27 mounted between the sample end platens to measure axial deformation of the sample 34; • (b) four cantilever (orthogonal) radial gauges 26 mounted at mid-height of the sample 34 to measure radial deformation; • (c) two thermal sensors 33 to measure sample 34 top and bottom temperatures; • (d) a load cell 22 located underneath the bottom platen 21 to measure axial deviatoric load (not used); • (e) a pressure transducer to measure cell (confining) pressure; and • (f) two pressure transducers to measure pore pressure at both ends of the sample 34.
A computer-controlled system was used to control the cell and pore pressures with stepping motor pumps, and to perform data acquisition. During the test, the cell temperature was maintained constant by placing the autonomous triaxial cell in a temperature-controlled oven. […]

[2] = Membrane efficiency screening test (membrane efficiency screening equipment); details: about 25° Celsius, about 15 MPa
Experimental: Two types of test equipment are used for the present invention: (i) membrane efficiency screening equipment for tests conducted at 25° Celsius and the test solution at 15 MPa, and (ii) autonomous triaxial test equipment for tests conducted at temperatures above 25° Celsius and/or the test solution at 35 MPa.
The membrane efficiency screening equipment has six test cells. Six different test solutions can be tested under simulated downhole pressure conditions, at any one time with independent, individual test cell control. Referring to FIG. 4, the parts of the cell are shown as follows: Cell-1; Base-2; Bleed Port-3; Confining Fluid Port-4; Downstream Pressure Line (pore fluid)-5; Upstream Pressure Line (test solution)-6; Knurl-7; Top Platen-8; Membrane-9; Sample-10; Bottom Platen-11; O-Rings-12; Collar-13; and Seal-14.
The cell of FIG. 4 has a confining pressure and pore pressure capacity of 35 MPa and 20 MPa respectively. The confining pressure is applied with a Haskel pump and controlled with a high precision stepping motor pump control system. […] Two separate high-pressure gas cylinders provide the upstream and downstream pressures which are controlled by high pressure regulators.
The test procedures for the membrane efficiency screening equipment are as follows: • (a) bleed top (downstream) and bottom (upstream) platens 8 and 11 with simulated pore fluid; • (b) place a sample 10 (25 mm diameter and approximately 10 mm long) between the platens 8 and 11; • (c) jacket the sample in a 1.0 mm thick Viton membrane 9; • (d) mount O-rings 12 over the jacket on the platens 8 and 11; • (e) mount the cell 1; • (f) fill the cell 1 with water; • (g) apply a confining pressure of 20 MPa (via port 4); • (h) apply a back (upstream) pressure of 10 MPa (via line 6) and check for flow across the (upstream) platen 8; • (i) open the downstream pressure valve (on line 5) if the (downstream) pressure is less than 10 MPa; • (j) when the downstream pressure has stabilised at 10 MPa (pressure change <50 kPa/hour, i.e. sample has consolidated), increase the upstream pressure to 15 MPa; • (k) when the downstream pressure has increased by at least 2 MPa (pressure transmitted from the upstream end), reduce the upstream pressure to 10 MPa; • (l) when the downstream pressure has stabilised at 10 MPa (pressure change <50 kPa/hour, i.e. sample has reconsolidated), displace the pore fluid at the upstream end with the test solution at 15 MPa (water activity of test solution is not reduced with electrolyte, i.e. essentially the same as that of the shale); • (m) when the downstream pressure has increased and stabilised (pressure transmitted from the upstream end), displace the test solution (at the upstream end) with the lower water activity solution; • (n) adjust the lower water activity solution circulation rate; and • (o) terminate the test when a maximum decrease in the downstream pressure is observed.
The membrane efficiency obtained from a test is defined as percentage ratio of the maximum differential pressure developed across the shale sample (upstream pressure minus minimum downstream pressure during chemical potential stage) and the theoretical osmotic pressure of the test solution-shale system. The theoretical osmotic pressure is given by: [formula] where Π=osmotic pressure (kPa) • R=gas constant (0.083 liter atm mol^−1 ° K^−1) • T=absolute temperature (° K) • V=partial molar volume of water (0.018 litre mol^−1) • Asol=water activity of lower water activity solution • Ash=water activity of shale

[3] = Phase transition to a hexagonal phase (aqueous concentration); type: physicochemical; details: about pH 10; about 25° Celsius
[4] = cited from earlier work

Potassium methyl siliconate
Effect of temperature on membrane generation capacity ([1]; temperature up to about 80° Celsius): not significantly affected by temperature of up to about 80° Celsius
Effect of test solution pressure on membrane generation capacity ([1]; test solutions at about 35 MPa): only slightly reduced
Membrane efficiency ([1]; test solutions at about 35 MPa, about 40° Celsius to about 80° Celsius): approximately 54%
Membrane efficiency ([2]; about 5 to about 10 wt %, pH about 11.95 to about 12.8, 12, 15 or 20 wt % sodium chloride): up to 80%
Change of membrane generation capacity with pH ([2]; for a given concentration): increased greatly when pH was reduced from about 12.8 to about 11.95

sodium methyl siliconate
Membrane efficiency ([2]; about 5 to about 10 wt %, pH about 11.9 to about 12.6, 12 wt % sodium chloride or 16 wt % potassium chloride): up to 86%
Change of membrane generation capacity with pH ([2]; for a given concentration): increased greatly when pH was reduced from about 12.6 to about 11.9

[Cl-].[K+] [potassium chloride, reference compound]
Membrane efficiency ([2]; stock solution about 26.3 wt % potassium chloride, pH not adjusted): about 9%

silicic acid
Change of membrane generation capacity with pH ([2]; about 1 wt % and about 2.5 wt %): essentially the same between pH of about 11.15 and about 12.5
Change of membrane generation capacity with pH ([2]; about 5 wt % to about 10 wt %): increases with increase in pH
Membrane efficiency ([2]; all concentrations evaluated (about 1 to about 10 wt %), pH about 11.15 to about 12.5, 12 wt % sodium chloride): > 70%

CCCCCCCC/C=C\CCCCCCCC(=O)[O-].C[N+](C)(C)C [Tetramethylammonium oleate]
Membrane efficiency ([2]; about 5 to about 10 wt %, pH about 9, water activity reduced with 33.4 wt % tetramethylammonium chloride): up to 44%
Concentration at which phase transition to a hexagonal phase occurs [3]: about 20 wt %

C[N+](C)(C)C.[Cl-] [tetramethylammonium chloride, reference compound]
Membrane efficiency ([2]; stock solution about 33.4 wt % tetramethylammonium chloride, pH not adjusted): about 8%

C[Si](O)(O)O [methyl silanetriol]
pKa [4]: about 11

CCCCCCCCCCCC(=O)[O-].C[N+](C)(C)C [tetramethylammonium laurate]
Membrane efficiency ([2]; about 5 to about 10 wt %, pH about 7.6 to about 11.5, water activity reduced with 33.4 wt % tetramethylammonium chloride): up to 57%
Change of membrane generation capacity with pH ([2]; for a given concentration): increased significantly when pH was increased from about 7.6 to about 11.5
Concentration at which phase transition to a hexagonal phase occurs [3]: about 20 wt %

Oc1ccc2ccccc2c1 [2-naphthol]
Change of membrane generation capacity with pH ([2]; for a given concentration): did not change significantly between the pH range
